Our source for the IC50, CC50 and EC50 values is ChEMBL document CHEMBL6087390, “Pyridine and Pyrimidine hybrids as privileged scaffolds in antimalarial drug discovery: A recent development” (Bioorg Med Chem Lett, 2024).

For series [1], the system named is Plasmodium falciparum. Briefly: microbe, parasite or virus in culture. Conditions: 3D7, 48 h.
The subject of series [2] is Plasmodium falciparum. Briefly: Antimalarial activity against Plasmodium falciparum RKL9. In kind it is functional, organism-based.
In series [3] the test system is Plasmodium falciparum. Put plainly: Antimalarial activity against […] Plasmodium falciparum NF54 assessed as inhibition of parasite growth incubated for 48 hrs by SYBR green dye based flow cytometry. In kind it is functional, organism-based. The note with it: NF54, 48 h. In general terms: A flow cytometer gives signals particle by particle.
The subject of series [4] is Plasmodium falciparum. Briefly: Antimalarial activity against Plasmodium falciparum K1 assessed as parasite growth inhibition. It is filed as functional, organism-based.
Series [5] deals with Plasmodium falciparum. It is filed as functional, organism-based. The note with it: W2.
Series [6] relates to Plasmodium falciparum. Put plainly: Antimalarial activity against CQ-resistant Plasmodium falciparum Dd2. In kind it is functional, organism-based.
Series [7] relates to Plasmodium falciparum. Put plainly: Antimalarial activity against Plasmodium falciparum 3D7 assessed as reduction in malarial growth measured after 48 hrs by SYBR green dye based analysis. The note with it: 3D7, 48 h. In kind it is functional, organism-based.
The test system of series [8] is HepG2. Put plainly: Cytotoxicity against human HepG2 cells assessed as reduction in cell viability measured for 48 hrs by MTT assay. It is filed as functional.
The test system of series [9] is Plasmodium falciparum. Put plainly: Antiplasmodial activity against multidrug resistant Plasmodium falciparum K1 assessed as reduction in parasite growth by [3H]-hypoxanthine incorporation assay. It is filed as functional, organism-based.
Series [10] deals with Plasmodium falciparum. Put plainly: Antimalarial activity against Plasmodium falciparum 3D7 assessed as inhibition of parasite growth measured after 72 hrs by SYBR Green I staining based analysis. Conditions: 3D7, 72 h. It is filed as functional, organism-based.
For series [11], the system named is Plasmodium falciparum. Put plainly: Antiplasmodial activity against Plasmodium falciparum Dd2 assessed as reduction in parasite growth measured after 72 hrs by SYBR Green 1 staining based assay. It is filed as functional, organism-based. Conditions: Dd2, 72 h.
In series [12] the test system is Plasmodium falciparum. Briefly: microbe, parasite or virus in culture. The note with it: 3D7, 72 h.
The test system of series [13] is Plasmodium falciparum. Put plainly: Antiplasmodial activity against Plasmodium falciparum K1. It is filed as functional, organism-based.
Series [14] concerns Plasmodium falciparum. Put plainly: Antiplasmodial activity against Plasmodium falciparum W2 assessed as reduction in parasite growth after 72 hrs by SYBR Green fluorescence assay. It is filed as functional, organism-based. Conditions: W2, 72 h.
Series [15] relates to HepG2. Put plainly: Cytotoxicity against human HepG2 cells assessed as reduction in cell viability measured for 48 hrs by SRB assay. It is filed as functional. Background: The SRB assay estimates cell density from bound dye.
Series [16] can be described thus: Cytotoxicity against human MRC5 cells assessed as inhibition of cell growth incubated for 72 hrs by MTT assay. In kind it is toxicity, cell-based. In general terms: Formazan colour is commonly taken as a measure of viable cells.

≈ marks a conversion by molar mass, not a printed value.

The IC50 is the concentration that gives 50% inhibition. The term CC50 denotes the concentration giving 50% cytotoxicity. Usually EC50 stands for the concentration giving half of the maximal effect.

As to `COc1cc(-c2cc(-c3cc(Cl)sc3Cl)nc(S)n2)ccc1OCc1ccccc1`, the IC50 was determined as 9.9 µg/mL (≈ 20.8 µM) in [1] and 6.1 µg/mL (≈ 12.8 µM) in [2].
As to `COc1ccc(-c2cc(-c3ccco3)nc(S)n2)cc1OCc1ccccc1`, the concentration for half-maximal inhibition (IC50) was found to be 5.1 µg/mL (≈ 13.1 µM) in series [1] and 2 µg/mL (≈ 5.12 µM) in series [2].
As to `Clc1ccc2c(NCCn3cc(-c4ccnc(-c5ccccn5)c4)nn3)ccnc2c1`, the IC50 in series [3] turned out to be 90 nM; in series [4], 270 nM.
Compound `NCCCCNc1ncnc2c1cnn2-c1ccc(Cl)cc1` showed a concentration for half-maximal inhibition (IC50) in [5] of 13200 nM.
Regarding `COc1ccc2nc(/C=C/c3ccncc3)ccc2c1`, the IC50 in series [6] was more than 10000 nM.
Turning to `COc1cc(-c2cc(-c3ccco3)nc(N)n2)ccc1OCc1ccccc1`, the IC50 in series [1] worked out at 20 µg/mL (≈ 53.6 µM); in [2] it was 10.5 µg/mL (≈ 28.1 µM).
With `Cc1cc(C)nc(NS(=O)(=O)c2ccc(-n3cc(COc4ccc5ccc(=O)oc5c4)nn3)cc2)n1`, in series [7], the 50% inhibitory concentration (IC50) is more than 79400 nM.
As for `CCc1ccccc1N(C)C(=O)C(c1cncnc1)N(Cc1cccc(C(F)(F)F)c1)C1CC1` (stereo not given), in [8], the CC50 is more than 30000 nM. In series [9], the EC50 is 570 nM.
For the compound `COc1cc(-c2cc(-c3cc(Cl)sc3Cl)nc(N)n2)ccc1OCc1ccccc1`, the IC50 in [1] amounted to 6.3 µg/mL (≈ 13.7 µM); in series [2], 2.9 µg/mL (≈ 6.33 µM).
As to `Cc1ccc(-c2nn(-c3ccccc3)cc2/C=C/c2nnc(-c3ccncc3)o2)cc1`, the IC50 turned out to be 0.4 µg/mL in [7] and 1.7 µg/mL (≈ 4.19 µM) in series [2].
As for `Cc1ccccc1-n1nnnc1C(c1cccnc1)N(C)Cc1cc(C(F)(F)F)ccc1F` (stereo not given), the EC50 in series [10] came out at 1000 nM.
For `COc1ccc2cc3[n+](cc2c1OCc1cn(-c2ccc(S(=O)(=O)Nc4nc(C)cc(C)n4)cc2)nn1)CCc1cc2c(cc1-3)OCO2.[Cl-]`, the IC50 in series [7] came out at 4 µg/mL.
Consider `COc1ccc(C(F)(F)F)cc1CN(C)C(c1cccnc1)c1nnnn1-c1ccccc1C` (stereo not given), for which the EC50 in series [11] was determined as 1700 nM; in series [10], 1200 nM.
Consider `Cc1ccccc1N(C)C(=O)C(c1cncnc1)N(Cc1cccc(SC(F)(F)F)c1)C1CC1` (stereo not given), for which the CC50 in series [8] is more than 30000 nM. For the same compound, in [9], the half-maximal effective concentration (EC50) was found to be 1000 nM.
In the case of `COc1ccc(-c2cc(-c3cc(Cl)sc3Cl)nc(N)n2)cc1OCc1ccccc1`, the IC50 in series [1] is 5.4 µg/mL (≈ 11.8 µM); in series [2], 2.4 µg/mL (≈ 5.24 µM).
For the compound `FC(F)(F)c1cccc(CN(C2CC2)C(c2cccnc2)c2nnnn2C2CC2)c1` (stereo not given), the EC50 in series [11] worked out at 3000 nM.
Consider `CC(C)CC(CN1CCN(c2ncccn2)CC1)Nc1ccnc2cc(Cl)ccc12` (stereo not given), for which the IC50 in series [12] was 460 nM; in [13], 352 nM.
On to `COc1ccc(NC(=O)C(c2ccc(C)cc2)N2CCN(c3ncnc4sc5c(c34)CCCC5)CC2)cc1` (stereo not given), for which, in series [14], the IC50 stood at 260 nM.
Consider `CN(Cc1cccc(C(F)(F)F)c1F)C(c1cccnc1)c1nnnn1C1CCCCC1` (stereo not given), for which the EC50 amounted to 2600 nM in [11] and 1700 nM in series [10].
`Cc1ccc(S(=O)(=O)NCCCCNc2ncnc3c2cnn3-c2ccc(F)cc2)cc1` showed an IC50 in [5] of 5130 nM.
`COc1ccc2nc(/C=C/c3ccncc3)cc(NCCN(C)C)c2c1` registered an IC50 in series [6] of 30 nM.
Take `O=S(=O)(NCCCCNc1ncnc2c1cnn2-c1ccc(Cl)cc1)c1ccc(F)cc1`: in series [5], the IC50 was found to be 43400 nM.
Take `CCc1ccccc1N(C)C(=O)C(c1cccnc1)N(Cc1cccc(C(F)(F)F)c1)C1CC1` (stereo not given): the CC50 in series [15] is more than 30000 nM.
For the compound `CC1(C)c2nc(-c3ccc(F)cc3)c(Br)n2CCN1C(=O)Cn1cc(-c2ccnc(-c3ccccn3)c2)nn1`, the IC50 in series [3] was 6800 nM; in series [4] it was 3900 nM.
Regarding `Cc1cc(C)cc(N(Cc2cc(C)ccc2C)S(=O)(=O)c2cccn3c(C)nnc23)c1`, the IC50 at 72 h in series [16] is 48500 nM. The same compound gave a half-maximal inhibitory concentration (IC50) in series [13] of 11500 nM.
As for `COc1ccc(-c2cc(-c3cc(Cl)sc3Cl)nc(S)n2)cc1OCc1ccccc1`, the IC50 in [1] came to 4.2 µg/mL (≈ 8.83 µM); in series [2], 2.2 µg/mL (≈ 4.63 µM).
For `COc1ccc(NC(=O)C(c2ccc(OC(F)(F)F)cc2)N2CCN(c3ncnc4sc5c(c34)CCCC5)CC2)cc1` (stereo not given), the IC50 in series [14] was found to be 60 nM.
As for `COc1ncnc(NS(=O)(=O)c2ccc(N)cc2)c1OC` [SULFADOXINE], in [5], the half-inhibitory concentration (IC50) came to 15000 nM.
Turning to `CN(C(=O)C(c1cncnc1)N(Cc1cccc(C(F)(F)F)c1)C1CC1)c1ccccc1` (stereo not given), in [8], the CC50 was more than 30000 nM. The EC50 in series [9] came out at 2000 nM.
`CCCN(C(C(=O)N(C)c1ccccc1C)c1cccnc1)C1(c2cccc(C(F)(F)F)c2)CC1` (stereo not given): the CC50 in series [15] was more than 15000 nM.
Regarding `COc1ccc(NC(=O)C(c2ccc(F)c(Cl)c2)N2CCN(c3ncnc4sc5c(c34)CCCC5)CC2)cc1` (stereo not given), the IC50 in series [14] came to 120 nM; in [12], 1000 nM.
`NCCCCNc1ncnc2c1cnn2-c1ccc(F)cc1`: in [5], the IC50 was 21600 nM.
On to `COc1ccc(NC(=O)C(c2ccc(Cl)c(Cl)c2)N2CCN(c3ncnc4sc5c(c34)CCCC5)CC2)cc1` (stereo not given), for which, in [14], the IC50 stood at 60 nM.
